Measured values reported in patent US10005767B2, “Compositions and methods for inhibition of the JAK pathway” (Rigel Pharmaceuticals, Inc., priority 2009, dated 2018).
Counter-ions that a name gives are not always drawn. Like-named read-outs stand apart in the source and are kept apart here.

Test system: human primary T-cells, IL-2 stimulated proliferation (JAK-1 and JAK-3 dependent; reported as JAK3 activity)
Assay: Human primary T-cell proliferation stimulated by IL-2 (Example 3)
Assay type: cell-based
Conditions: tested under conditions described in Example 3 (IL-2 stimulated human primary T-cell proliferation), read-out: ability to inhibit JAK3 activity, IC50 range (Table V)
Summary of the method: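 Peripheral-blood human T-cells pre-activated via TCR/CD28, IL-2-starved overnight, then cultured 72 h at 37 °C with compound in Yssel's medium containing IL-2 (80 U/mL in cell suspension). Proliferation read as viable-cell ATP by CellTiter-Glo luminescence; reduction versus control taken as JAK pathway inhibition.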

| Compound | IC50 [nM] | IC50 (Homo sapiens, T-cell) [nM] |
| --- | --- | --- |
| Cc1cnc(Nc2ccc(F)c(Cl)c2)nc1Nc1ccc2oc(=O)[nH]c2c1 [Compound I-399, N2-(3-chloro-4-fluoro)phenyl-5-methyl-N4-(2-oxo-2,3-dihydro-1,3-benzoxazol-5-yl)-2,4-pyrimidinediamine] | < 500 |  |
| Cc1cnc(Nc2ccc3cnoc3c2)nc1Nc1ccc2oc(=O)[nH]c2c1 [IV-5, N4-(benzo[d]oxazol-2(3H)-on-5-yl)-N2-(1,2-benzisoxazol-6-yl)-5-methylpyrimidine-2,4-diamine] |  | < 500 |
| NS(=O)(=O)c1cccc(Nc2ncc(F)c(Nc3ccc4oc(=O)[nH]c4c3)n2)c1 [Compound I-18] | < 500 |  |
| Cc1ccc(Nc2ncc(C)c(Nc3ccc4oc(=O)[nH]c4c3)n2)cc1C(F)F [Compound I-438, 5-(2-(3-(difluoromethyl)-4-methylphenylamino)-5-methylpyrimidin-4-ylamino)benzo[d]oxazol-2(3H)-one] |  | < 500 |
| Cc1ccc(Nc2ncc(C)c(Nc3ccc4[nH]c(=O)oc4c3)n2)cc1NS(C)(=O)=O [Compound I-104, N2-((3-methylsulfonylamino-4-methyl)phenyl)-N4-(2-oxo-2,3-dihydrobenzo[d]oxazol-6-yl)-5-methylpyrimidine-2,4-diamine] | < 500 |  |
| COC(=O)c1ccc(Nc2ncc(C)c(Nc3ccc4oc(=O)[nH]c4c3)n2)cc1C [Compound I-159, 2-Methyl-4-[5-methyl-4-(2-oxo-2,3-dihydro-benzooxazol-5-ylamino)-pyrimidin-2-ylamino]-benzoic acid methyl ester] |  | < 500 |
| COc1cc(Nc2ncc(C)c(Nc3ccc4oc(=O)[nH]c4c3)n2)cc(C(=O)N2CCCC2)c1 [Compound I-253, 5-(2-(3-methoxy-5-(pyrrolidine-1-carbonyl)phenylamino)-5-methylpyrimidin-4-ylamino)benzo[d]oxazol-2(3H)-one] |  | > 10000 |
| Cc1cnc(Nc2cc(C(C)NC(C)C)cc(C(F)(F)F)c2)nc1Nc1ccc2oc(=O)[nH]c2c1 (stereo not drawn) [Compound I-473, 5-(2-(3-(1-(isopropylamino)ethyl)-5-(trifluoromethyl)phenylamino)-5-methylpyrimidin-4-ylamino)benzo[d]oxazol-2(3H)-one] |  | < 500 |
| Cc1ccc(Nc2ncc(C)c(Nc3ccc4oc(=O)[nH]c4c3)n2)cc1C(F)(F)F [Compound I-154, 5-[5-Methyl-2-(4-methyl-3-trifluoromethyl-phenylamino)-pyrimidin-4-ylamino]-3H-benzooxazol-2-one] |  | < 500 |
| CCNC(=O)NC1CCN(c2ccc(Nc3ncc(C)c(Nc4ccc5oc(=O)[nH]c5c4)n3)cn2)C1 (stereo not drawn) [II-96, 1-ethyl-3-(1-(5-(5-methyl-4-(2-oxo-2,3-dihydrobenzo[d]oxazol-5-ylamino)pyrimidin-2-ylamino)pyridin-2-yl)pyrrolidin-3-yl)urea] |  | < 500 |
| CCN(CC)C1CCN(C(C)c2ccc(Nc3ncc(C)c(Nc4ccc5oc(=O)[nH]c5c4)n3)cc2)C1 (stereo not drawn) [Compound I-205, 5-(2-(4-(1-(3-(diethylamino)pyrrolidin-1-yl)ethyl)phenylamino)-5-methylpyrimidin-4-ylamino)benzo[d]oxazol-2(3H)-one] |  | < 500 |
| Cc1cnc(Nc2ccc3c(c2)OCCO3)nc1Nc1ccc2oc(=O)[nH]c2c1 [IV-37, N2-(3,4-ethylenedioxy)phenyl-5-methyl-N4-(2-oxo-2,3-dihydro-1,3-benzoxazol-5-yl)-2,4-pyrimidinediamine] | < 500 |  |
| N4-(benzo[d]oxazol-2(3H)-on-5-yl)-N2-(2-(bicyclo[2.2.1]heptan-2-ylmethyl)isoindolin-5-yl)-5-methylpyrimidine-2,4-diamine [III-11] | < 500 |  |
| Cc1cnc(Nc2ccc(C(=O)NC3CCC3)cc2)nc1Nc1ccc2oc(=O)[nH]c2c1 [Compound I-138, N-Cyclobutyl-4-[5-methyl-4-(2-oxo-2,3-dihydro-benzooxazol-5-ylamino)-pyrimidin-2-ylamino]-benzamide formic acid salt] |  | < 500 |
| Cc1cnc(Nc2cc(Cl)cc(C#N)c2)nc1Nc1ccc2oc(=O)[nH]c2c1 [Compound I-187, 3-Chloro-5-[5-methyl-4-(2-oxo-2,3-dihydro-benzooxazol-5-ylamino)-pyrimidin-2-ylamino]-benzonitrile] |  | < 500 |
| Cc1cnc(Nc2ccc(N3CCC(NC(=O)NC(C)(C)C)C3)nc2)nc1Nc1ccc2oc(=O)[nH]c2c1 (stereo not drawn) [II-97, 1-tert-butyl-3-(1-(5-(5-methyl-4-(2-oxo-2,3-dihydrobenzo[d]oxazol-5-ylamino)pyrimidin-2-ylamino)pyridin-2-yl)pyrrolidin-3-yl)urea] |  | < 500 |
| Cc1cnc(Nc2cnc(N3CCN(C)CC3)c(C)c2)nc1Nc1ccc2[nH]c(=O)[nH]c2c1 [II-27, N4-(benzimidazolin-2-on-5-yl)-N2-[3-methyl-2-(4-methylpiperazin-1-yl)pyridin-5-yl]-5-methylpyrimidine-2,4-diamine] | < 500 |  |

| Compound | IC50 [nM] | IC50 (Homo sapiens, T-cell) [nM] |
| --- | --- | --- |
| Cc1cnc(Nc2cc(C)c(C)c(C)c2)nc1Nc1cc(Cl)c2oc(=O)[nH]c2c1 [Compound I-522, N4-(7-chloro-2-oxo-2,3-dihydro-1,3-benzoxazol-5-yl)-5-methyl-N2-(3,4,5-trimethyl)phenyl-2,4-pyrimidinediamine] | < 500 |  |
| COc1cc(Nc2ncc(C)c(Nc3ccc4oc(=O)[nH]c4c3)n2)ccc1N1CCN(C)CC1 [Compound I-340, N2-[3-methoxy-4-(4-methylpiperazino)]phenyl-5-methyl-N4-(2-oxo-2,3-dihydro-1,3-benzoxazol-5-yl)-2,4-pyrimidinediamine] | < 500 |  |
| COc1ccc(Nc2ncc(C)c(Nc3ccc4oc(=O)[nH]c4c3)n2)cc1OCC(=O)NC1CC1 [Compound I-293, N2-[3-(cyclopropylaminocarbonylmethoxy)-4-methoxy]phenyl-5-methyl-N4-(2-oxo-2,3-dihydro-1,3-benzoxazol-5-yl)-2,4-pyrimidinediamine] | < 500 |  |
| Cc1cnc(Nc2ccc(C#N)c(OC(F)F)c2)nc1Nc1ccc2oc(=O)[nH]c2c1 [Compound I-434, N2-(4-cyano-3-difluoromethoxy)phenyl-5-methyl-N4-(2-oxo-2,3-dihydro-1,3-benzoxazol-5-yl)-2,4-pyrimidinediamine] | < 500 |  |
| Cc1cnc(Nc2cnc(N3CC4CCC(C3)N4)c(C)c2)nc1Nc1ccc2oc(=O)[nH]c2c1 [II-61, 5-(2-(6-(3,8-diaza-bicyclo[3.2.1]octan-3-yl)-5-methylpyridin-3-ylamino)-5-methylpyrimidin-4-ylamino)benzo[d]oxazol-2(3H)-one] |  | < 500 |
| COC(=O)c1ccc(Nc2ncc(C)c(Nc3ccc4oc(=O)[nH]c4c3)n2)cc1OC [Compound I-336, N2-(3-methoxy-4-methoxycarbonyl)phenyl-5-methyl-N4-(2-oxo-2,3-dihydro-1,3-benzoxazol-5-yl)-2,4-pyrimidinediamine] | < 500 |  |
| CCCn1c(=O)oc2ccc(Nc3nc(Nc4cccc(S(C)(=O)=O)c4)ncc3C)cc21 [Compound I-7, N4-(3-n-propylbenzo[d]oxazol-2(3H)-on-5-yl)-N2-((3-methylsulfonyl)phenyl)-5-methylpyrimidine-2,4-diamine] | < 500 |  |
| CC(=O)Nc1ccc(Nc2ncc(C)c(Nc3ccc4oc(=O)[nH]c4c3)n2)cc1C(F)(F)F [Compound I-177, N-{4-[5-Methyl-4-(2-oxo-2,3-dihydro-benzooxazol-5-ylamino)-pyrimidin-2-ylamino]-2-trifluoromethyl-phenyl}-acetamide] |  | < 500 |
| CN1CCN(c2ccc(Nc3ncc(F)c(Nc4ccc5oc(=O)[nH]c5c4)n3)cn2)CC1 [II-14, N4-(benzo[d]oxazol-2(3H)-on-5-yl)-N2-[2-(4-methylpiperazin-1-yl)pyridin-5-yl]-5-fluoropyrimidine-2,4-diamine] |  | < 500 |
| COCCN1C(=O)COc2cc(Nc3ncc(C)c(Nc4ccc5oc(=O)[nH]c5c4)n3)ccc21 [IV-44, N2-[4-(2-methoxyethyl)-2H-1,4-benzoxazin-3 (4H)-one-7-yl]-5-methyl-N4-(2-oxo-2,3-dihydro-1,3-benzoxazol-5-yl)-2,4-pyrimidinediamine] |  | < 500 |
| Cc1cnc(Nc2ccc(S(N)(=O)=O)cc2)nc1Nc1ccc2oc(=O)n(C)c2c1 [Compound I-68, N2-((4-aminosulfonyl)phenyl)-N4-(3-methyl-2-oxo-2,3-dihydrobenzo[d]oxazol-5-yl)-5-methylpyrimidine-2,4-diamine] | < 500 |  |
| COc1cc(Nc2ncc(C)c(Nc3ccc4oc(=O)[nH]c4c3)n2)c(F)cc1F [Compound I-193, 5-[2-(2,4-Difluoro-5-methoxy-phenylamino)-5-methyl-pyrimidin-4-ylamino]-3H-benzooxazol-2-one] |  | 500 to 5000 |
| COc1ccc(Nc2ncc(C)c(Nc3ccc4oc(=O)[nH]c4c3)n2)cc1OCc1ccncc1 [Compound I-298, N2-{4-methoxy-3-[(pyridin-4-yl)methoxy]}phenyl-5-methyl-N4-(2-oxo-2,3-dihydro-1,3-benzoxazol-5-yl)-2,4-pyrimidinediamine] | < 500 |  |
| Cc1cnc(Nc2ccc(N3CCN(C(=O)OC(C)(C)C)CC3)nc2)nc1Nc1ccc2oc(=O)[nH]c2c1 [II-5, N4-(benzo[d]oxazol-2(3H)-on-5-yl)-N2-(6-(4-tert-butyloxycarbonylpiperazin-1-yl)pyridin-3-yl)-5-methylpyrimidine-2,4-diamine] |  | < 500 |
| CS(=O)(=O)Nc1cccc(Nc2ncc(F)c(Nc3ccc4oc(=O)[nH]c4c3)n2)c1 [Compound I-56] | < 500 |  |
| Cc1cnc(Nc2ccc(N3CCN(C)CC3)c(CO)c2)nc1Nc1ccc2oc(=O)[nH]c2c1 [Compound I-331, N2-[3-hydroxymethyl-4-(4-methylpiperazino)]phenyl-5-methyl-N4-(2-oxo-2,3-dihydro-1,3-benzoxazol-5-yl)-2,4-pyrimidinediamine] | < 500 |  |
